Assay results: US20200017496A1 (priority 2017, published 2020)
Where two headings read alike, the source gives them in different places.

Legend:
Format in all cases: cell-based
[1] = test system: Proteus mirabilis (PMI) isolates; assay: microbe, parasite or virus in culture; details: for MIC ATB in combination: AF1 @ 4 μg/mL
Procedure: (§1) Method 2: MIC of Compounds Alone and Combined with Antibacterials Against Bacterial Isolates.
(§2) Compounds of the present invention were assessed against genotyped bacterial strains (Table 3, 4) alone or in combination with an antibacterial (Table 2). […] Log phase bacterial suspensions were adjusted to a final density of 5·10^5 CFU/mL in cation-adjusted Mueller-Hinton broth (ca-MHB; Becton-Dickinson and Company) and added to each well (98 μL). Microplates were incubated for 16-20 h at 35° C. in ambient air. The MIC of the compounds was defined as the lowest concentration of said compounds that prevented bacterial growth as read by visual inspection. The MIC of ATB at each compound concentration was defined as the lowest concentration of ATB that prevented bacterial growth as read by visual inspection.

[2] = test system: Citrobacter koseri (CKR) isolates; assay: MIC of compounds alone and combined with antibacterials, broth microdilution (CLSI); details: for MIC ATB in combination: AF1 @ 4 μg/mL; for MIC: Citrobacter koseri
Procedure: as §1, §2

[3] = test system: Escherichia coli (ECO) isolates; assay: as above
Procedure: as §1, §2

## CC1(C)S[C@@H]2[C@H](NC(=O)[C@H](N)c3ccc(O)cc3)C(=O)N2[C@H]1C(=O)O [AMX, Amoxicillin]
[1]
  MIC: 128 µg/mL
[1]; PMI UFR82
  MIC ATB in combination: 8 µg/mL
[1]; PMI UFR120
  MIC ATB in combination: <=0.25 μg/mL
[1]; PMI UFR121
  MIC ATB in combination: <=0.25 μg/mL
[1]; PMI UFR122
  MIC ATB in combination: <=0.25 μg/mL
[1]; PMI UFR123
  MIC ATB in combination: <=0.25 μg/mL
[1]; PMI UFR124
  MIC ATB in combination: <=0.25 μg/mL
[1]; PMI UFR125
  MIC ATB in combination: <=0.25 μg/mL
[1]; PMI UFR126
  MIC ATB in combination: 4 µg/mL
[1]; PMI UFR127
  MIC ATB in combination: 4 µg/mL
[1]; PMI UFR129
  MIC ATB in combination: 8 µg/mL
[1]; PMI UFR130
  MIC ATB in combination: 8 µg/mL
[1]; PMI UFR237
  MIC ATB in combination: 16 µg/mL
[1]; Proteus mirabilis
  MIC: > 128 µg/mL
[1]; Proteus mirabilis, strain PMI UFR82 (CMY-2), ATB alone, read-out: MIC
  MIC: 256 µg/mL
[1]; Proteus mirabilis, strain PMI UFR120 (TEM-1, SHV-11, CTX-M-14), CLA @ 4 μg/ml+ ATB, read-out: MIC
  MIC: 8 µg/mL
[1]; Proteus mirabilis, strain PMI UFR121 (TEM-1, TEM-52), CLA @ 4 μg/ml+ ATB, read-out: MIC
  MIC: 4 µg/mL
[1]; Proteus mirabilis, strain PMI UFR122 (TEM-1, CTX-M-15), CLA @ 4 μg/ml+ ATB, read-out: MIC
  MIC: 8 µg/mL
[1]; Proteus mirabilis, strain PMI UFR123 (CTX-M-1), CLA @ 4 μg/ml+ ATB, read-out: MIC
  MIC: 16 µg/mL
[1]; Proteus mirabilis, strain PMI UFR125 (CTX-M-71), CLA @ 4 μg/ml+ ATB, read-out: MIC
  MIC: 4 µg/mL
[1]; Proteus mirabilis, strain PMI UFR126 (TEM-2, PER-1), CLA @ 4 μg/ml+ ATB, read-out: MIC
  MIC: 16 µg/mL
[1]; Proteus mirabilis, strain PMI UFR127 (VEB-1), CLA @ 4 μg/ml+ ATB, read-out: MIC
  MIC: 32 µg/mL
[1]; Proteus mirabilis, strain PMI UFR129 (TEM-1, VEB-6), CLA @ 4 μg/ml+ ATB, read-out: MIC
  MIC: 2 µg/mL
[1]; Proteus mirabilis, strain PMI UFR237 (VEB-6), CLA @ 4 μg/ml+ ATB, read-out: MIC
  MIC: 4 µg/mL
[2]; CKO ROU
  MIC ATB in combination: 32 µg/mL
[2]; CKO UFR149
  MIC ATB in combination: 512 µg/mL
[2]; CKO UFR150
  MIC ATB in combination: 64 µg/mL
[2]; strain CKO ROU (TEM-1, SHV-12, CTX-M-15, OXA-1, OXA-48), ATB alone
  MIC: > 256 µg/mL
[2]; strain CKO ROU (TEM-1, SHV-12, CTX-M-15, OXA-1, OXA-48), CLA @ 4 μg/ml+ ATB
  MIC: > 128 µg/mL
[2]; strain CKO UFR149 (OXA-48), ATB alone
  MIC: > 128 µg/mL
[2]; strain CKO UFR149 (OXA-48), CLA @ 4 μg/ml+ ATB
  MIC: > 128 µg/mL
[2]; strain CKO UFR150 (TEM-1, OXA-48), ATB alone
  MIC: > 128 µg/mL
[2]; strain CKO UFR150 (TEM-1, OXA-48), CLA @ 4 μg/ml+ ATB
  MIC: > 128 µg/mL
[3]
  MIC ATB in combination: 128 µg/mL
[3]; ECO 5302, AF1 @ 4 μg/mL
  MIC ATB in combination: 256 µg/mL
[3]; ECO 131119, AF1 @ 4 μg/mL
  MIC ATB in combination: 16 µg/mL
[3]; ECO 180070, AF1 @ 4 μg/mL
  MIC ATB in combination: <=1 μg/mL
[3]; ECO 190314, AF1 @ 4 μg/mL
  MIC ATB in combination: <=1 μg/mL
[3]; ECO 190317, AF1 @ 4 μg/mL
  MIC ATB in combination: 64 µg/mL
[3]; ECO 190457, AF1 @ 4 μg/mL
  MIC ATB in combination: 64 µg/mL
[3]; ECO 190549, AF1 @ 4 μg/mL
  MIC ATB in combination: <=1 μg/mL
[3]; ECO 200159, AF1 @ 4 μg/mL
  MIC ATB in combination: <=1 μg/mL
[3]; ECO 200259, AF1 @ 4 μg/mL
  MIC ATB in combination: <=1 μg/mL
[3]; ECO 200344, AF1 @ 4 μg/mL
  MIC ATB in combination: <=1 μg/mL
[3]; ECO 260096, AF1 @ 4 μg/mL
  MIC ATB in combination: <=1 μg/mL
[3]; ECO 260304, AF1 @ 4 μg/mL
  MIC ATB in combination: <=1 μg/mL
[3]; ECO 260508, AF1 @ 4 μg/mL
  MIC ATB in combination: 64 µg/mL
[3]; ECO RGN238, AF1 @ 4 μg/mL
  MIC ATB in combination: 256 µg/mL
[3]; ECO UFR15, AF1 @ 4 μg/mL
  MIC ATB in combination: 16 µg/mL
[3]; ECO UFR18, AF1 @ 4 μg/mL
  MIC ATB in combination: 64 µg/mL
[3]; ECO UFR19, AF1 @ 4 μg/mL
  MIC ATB in combination: 64 µg/mL
[3]; ECO UFR61O, AF1 @ 4 μg/mL
  MIC ATB in combination: 64 µg/mL
[3]; ECO UFR62, AF1 @ 4 μg/mL
  MIC ATB in combination: 16 µg/mL
[3]; ECO UFR86, AF1 @ 4 μg/mL
  MIC ATB in combination: 2 µg/mL
[3]; ECO UFR174, AF1 @ 4 μg/mL
  MIC ATB in combination: 32 µg/mL
[3]; ECO UFR175, AF1 @ 4 μg/mL
  MIC ATB in combination: 32 µg/mL
[3]; ECO UFR176, AF1 @ 4 μg/mL
  MIC ATB in combination: 32 µg/mL
[3]; ECO UFR184, AF1 @ 4 μg/mL
  MIC ATB in combination: 32 µg/mL
[3]; ECO UFR185, AF1 @ 4 μg/mL
  MIC ATB in combination: 256 µg/mL
[3]; ECO UFR186, AF1 @ 4 μg/mL
  MIC ATB in combination: 16 µg/mL
[3]; ECO UFR187, AF1 @ 4 μg/mL
  MIC ATB in combination: 16 µg/mL
[3]; ECO UFR189, AF1 @ 4 μg/mL
  MIC ATB in combination: 4 µg/mL
